Assay [1] relates to adult female rats. The assay can be described thus: Post-coital antifertility efficacy in adult female rats. The assay is classed as in vivo, rat. Conditions: oral. An excerpt:
Adult female rats are caged overnight with coeval males of proven fertility and their vaginal smears are checked on the following morning. The day of presence of spermatozoa in the vaginal smear is taken as day 1 of pregnancy. Mated rats are isolated and randomized into various treatment groups and treated orally with the compound of invention or the vehicle on days 1-7/1-5 post-coitum. Animals of all the groups are autopsied on day 10 post-coitum and number and status of corpora lutea and implantation sites in each rat are recorded. The compounds of the present invention are considered active if there is complete absence of implantations in the uterus of all rats, in comparison to presence of normal implantations in the uterus of rats of vehicle control group.

Assay [2] deals with immature ovariectomized rats. The assay can be described thus: Estrogen agonistic activity: increase in uterine weight in immature ovariectomized rats. The conditions noted are these: 3 days, percent of ovariectomized + vehicle group; for change in vivo at 3 mg/kg / change in vivo at 10 mg/kg: Rattus norvegicus, 72 h; for change in vivo at 3 mg/kg: daily dose 3 mg/kg. The assay is classed as in vivo, rat. How it is done:
Twenty-one-day-old immature female rats are bilaterally ovariectomized under light ether anaesthesia and, after post-operative rest for 7 days, are randomized into different treatment groups. Each rat receives the compound of the invention once daily for 3 consecutive days on days 28-30 of age. A separate group of animals receiving only the vehicle for similar duration serves as control. A autopsy 24 h after the last treatment on day 31 of age, vaginal smear of each rat is taken and uterus is carefully exised, gently blotted, weighed and fixed for histology and histomorphometry using image analysis. Premature opening of vagina, cornification of vaginal epitelium, increase in uterine fresh weight, total uterine and endometrial area and uterine luminal epithelial cell height are taken as parameters for evaluation of estrogen agonistic activity in comparision to rats of vehicle control group.

In assay [3] the test system is immature ovariectomized rats. The assay can be described thus: Estrogen antagonistic activity: inhibition in 17α-ethynylestradiol induced uterine weight gain in immature ovariectomized rats. The conditions noted are these: daily dose 10 mg/kg with 0.02 mg/kg 17-alfa-ethynylestradiol, 3 days; for inhibition in vivo at 10 mg/kg/day: Rattus norvegicus, 72 h, read-out: Percent inhibition in 17α-ethynylestradiol induced uterine weight gain. The assay is classed as in vivo, rat. How it is done:
Twenty-one-day-old immature female rats are bilaterally ovariectomized under light ether anaesthesia and after post-operative rest for 7 days, are randomized into different treatment groups. Each rat receives the compounds of the invention and 0.02 mg/kg dose of 17-alfa-ethynylestradiol in 10% ethanol-distilled water once daily for 3 consecutive days on days 28-30 of age. A separate group of animals receiving only 17-alfa-ethynylestradiol (0.02 mg/kg) in 10% ethanol-distilled water for similar duration are used for comparison. At autopsy on day 31 of age, vaginal smear of each rat is taken and uterus is carefully excised, gently blotted, weighed and fixed for histology and histomorphometry using image analysis. Inhibition in 17-alfa-ethynylestradiol-induced premature opening of vagina, cornification of vaginal epithelium, increase in uterine fresh weight, total uterine and endometrial area and uterine luminal epithelial cell height are taken as parameters for evaluation of estrogen antagonistic activity.

Assay [4] relates to MCF-7 cells. The assay can be described thus: Antiproliferative/cytotoxic activity in cultured MCF-7 cells (SRB assay). The conditions noted are these: Homo sapiens, MCF7, 48 h, MCF-7, 48 h. The assay is classed as cell-based. Here is the method: The procedure is based on the following methods: New calorimetric assay for anticancer drug screening, Skehan et al., J Natn Cancer Inst, 82,1107, 1990 and Feasibility of a high-flux anticancer drug screen using a diverse panel of cultured human tumor cell lines, J Natn Cancer Inst, 83,757, 1991.
A fully confluent flask of MCF-7 cells in trypsinized and 10^4 cells/well are plated in a 96 welled flat bottomed plate in 200 μl Minimum Essential Medium (MEM), pH 7.4 and allowed to attach for 24 h at 37° C. in a humidified CO2 incubator. Subsequently, the compound of invention dissolved in DMSO or ethanol is added at a specified concentration and further incubated for 48 h as before. The cells are then fixed in 50 μl cold 50% TCA and incubated for 1 h at 4° C. The supernatant is discarded and the plate is washed five times with deionized water and air-dried. 100 μl of 0.4% (w/v) Sulforhodamine B (SRB) in 1% acetic acid is added to each well and incubated at room temperature for 30 minutes. Unbound SRB is removed by five washes with chilled 1% acetic acid and the plate is air-dried. 200 μl of unbuffered 10 mM Tris base is added to solublize the bound stain for 5 minutes at room temperature and O.D. is read at 560 nm in a plate reader. The graph is plotted between O.D. and concentration and LC50 is calculated with respect to tamoxifen, which is used as a positive control.
On the technique in general: In SRB staining, fixed cells bind dye roughly in proportion to their protein.

Assay [5] concerns chick fetal bones in culture. Nature of the assay: Inhibition in PTH-induced resorption of 45Ca from chick fetal bones in culture (antiresorptive activity in vitro). The assay is classed as cell-based. Conditions: Gallus gallus, 96 h, 100 μM; PTH-induced 45Ca resorption, 96 h culture; read-out: T/C ratio. How it is done: 5 μl of each concentration are used for evaluation of antiresorptive activity in vitro. In control experiments, 5 μl of appropriate solvent is used in lieu of the test compound. Femur bones are isolated from chick embryos on day 11 post-ovulation. The adhering soft connective tissue is completely removed. Each femur bone is then placed in a drop of phosphate buffered saline (PBS) and is transferred to BGJb culture medium containing ^45CaCl2 and incubated for 2 h. Labeled femur bones are washed 2-3 times with PBS and transferred to BGJb medium containing parathyroid hormone and cultured for 96 h in the presence or absence of the compound of invention or the vehicle in BGJb medium. Contralateral femur of each fetus serves as corresponding control. Culture medium with the respective treatment in each well is changed after 48 h. On termination of the culture at 96 h, bones are transferred to 0.1 N HCl for 24 h. Radioactivity due to ^45Ca in the spent medium collected at 48 and 96 h of culture and HCl extract at 96 h of culture is quantified by Liquid Scintillation Spectrophotometer in 10 ml of the scintillation fluid. Bone resorbing activity is expressed as percentage of ^45Ca released into the culture medium and the effect of the compound of invention as percent of the corresponding contra-lateral control or T/C ratio as shown below: [formula]
Appropriate solvents are selected from solvents like water, physiological saline, phosphate buffered saline, phosphate buffer, DMSO alone or in a suitable combination thereof.

Assay [6] deals with T1, estrogen receptors (Rattus norvegicus, UniProt P06211).
T1 construct: Aliquot of uterine cytosol (200 μl; 2 uteri per ml) prepared in TEA buffer; from tissue; host or cells: uterine cytosol of immature estradiol-primed 20-21 day old rats
T1 sequence (P06211 1-600): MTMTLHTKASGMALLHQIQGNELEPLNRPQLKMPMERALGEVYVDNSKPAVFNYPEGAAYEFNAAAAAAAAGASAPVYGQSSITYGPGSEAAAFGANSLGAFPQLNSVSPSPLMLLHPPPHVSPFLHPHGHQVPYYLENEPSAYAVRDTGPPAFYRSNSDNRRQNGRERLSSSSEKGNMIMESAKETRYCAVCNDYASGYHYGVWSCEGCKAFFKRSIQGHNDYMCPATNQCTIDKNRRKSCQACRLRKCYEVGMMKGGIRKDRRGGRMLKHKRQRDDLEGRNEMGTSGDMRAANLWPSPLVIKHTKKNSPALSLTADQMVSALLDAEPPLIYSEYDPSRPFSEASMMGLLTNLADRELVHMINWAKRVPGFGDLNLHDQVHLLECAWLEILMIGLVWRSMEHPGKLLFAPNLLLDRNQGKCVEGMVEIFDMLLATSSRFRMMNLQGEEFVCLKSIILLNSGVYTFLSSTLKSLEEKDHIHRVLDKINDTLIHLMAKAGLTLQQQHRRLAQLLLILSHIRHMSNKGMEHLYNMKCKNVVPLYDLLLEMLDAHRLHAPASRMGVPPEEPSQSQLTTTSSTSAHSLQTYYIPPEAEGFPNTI
Nature of the assay: Relative binding affinity (RBA) to estrogen receptors, 3H-estradiol competition assay. Conditions: relative to 17-beta-estradiol (=100, percentage value); rat uterine cytosol, 3H-E2, 18 hrs at 4° C. Also noted: key: % of 17-beta-estradiol binding affinity (estradiol = 100). Here is the method:
The relative binding affinity (RBA) of the compounds for estrogen receptor is determined by competition assay, employing ^3H-estradiol (^3H-E2) as the radioligand. The test ligands and ^3H-E2 are incubated at 4° C. with cystol estrogen receptors obtained from uteri of immature estradoil-primed (1 μg/rat 24 h before autopsy) 20-21 days old rats. Aliquot of uterine cytosol (200 μl; 2 uteri per ml) prepared in TEA buffer (10 mM Tris, 1.5 mM EDTA, 0.02% sodium azide, pH 7.4) are incubated in duplicate with a fixed concentration of ^3H-E2 in the absence or presence of various concentrations of the competitor substance dissolved in 30 μl of the TEA buffer containing DMF as co-solvent (final concentration of DMF in the incubation mixture never exceeded 5%) for 18 hrs at 4° C. At the end of this period, dextran coated charcoal (5% Norit 0.5% dextran) suspension in 100 μl of TEA buffer is added to each tube, briefly vortexed and allowed to stand for 15 minutes at 4° C. The mixture is centrifuged at 800 g for 10 minutes and the supernatants counted for radioactivity in 10 ml of a dioxane-based scintillation fluid. RBA of the text compound is computed from a graph plotted between percent bound radioactivity verses log concentration of the test substance. […] This when multiplied with 100 gives the percentage value designated as RBA.

The mark [7] stands for this setting: daily dose 10 mg/kg, days 1-7 post-coitum.

Where two headings read alike, the source gives them in different places.

As to `c1ccc2c(c1)SCCc1c-2n(CCCN2CCCCC2)c2ccccc12` [Example number 7, 12-[3-(Piperidine-1-yl)propyl]-6,7-dihydro-12H-benzothiepino [5,4-b]indole], the “% Efficacy” value in assay [1] (setting [7]) is “Inactive”. Moreover, the change in vivo at 3 mg/kg in assay [2] is 24.6%. The change in vivo at 10 mg/kg in assay [2] (daily dose 10 mg/kg) was determined as 109%. The inhibition in vivo at 10 mg/kg/day in assay [3] is 15.4%. In addition, the CC50 in assay [4] (read-out: LC50, Test-1) amounted to 46 µM.

As for `c1ccc2c(c1)SCCc1c-2n(CCCCCN2CCCC2)c2ccccc12` [Example number 12, 12-[5-(Pyrrolidine-1-yl)pentyl]-6,7-dihydro-12H-benzothiepino [5,4-b]indole], the “% Efficacy” value in assay [1] (setting [7]) is “Inactive”. Besides, the change in vivo at 3 mg/kg in assay [2] is 3.4%. Further, the activity at 100 µM in assay [5] was 78%. Besides, the CC50 in assay [4] (read-out: LC50, Test-1) was determined as 63 µM. Besides, the RBA in assay [6] was 0.88.

`CCCCN(C)CCCCCn1c2c(c3ccccc31)CCSc1ccccc1-2.O=C(O)/C=C/C(=O)O` [Example number 16, 12-[5-(N-butylmethylamino)pentyl]-6,7-dihydro-12H-benzothiepino [5,4-b]indole fumaric acid Salt]: the “Percent increase in uterine weight” value in assay [2] (daily dose 10 mg/kg) worked out at 2.00%. Also, the “Percent inhibition in 17α-ethynylestradiol induced uterine weight gain” value in assay [3] is reported as 2.00%. Further, in assay [6], the RBA is recorded as below 0.001.

On to `Oc1ccc2c(c1)SCCc1c-2n(CCCCCN2CCCCC2)c2ccccc12` [Example number 24, 3-Hydroxy-12-[5-(piperidine-1-yl)pentyl]-6,7-dihydro-12H-benzothiepino [5,4-b]indole], for which the “% Efficacy” value in assay [1] (setting [7]) was “Inactive”. In addition, in assay [5], the activity at 100 µM worked out at 78%. The CC50 in assay [4] (read-out: LC50, Test-4) is 27 µM. Besides, the RBA in assay [6] is recorded as 10.75.

For `Oc1ccc2c(c1)SCCc1c-2n(CCCCCN2CCCCC2)c2ccc(O)cc12` [Example number 35, 3,9-Dihydroxy-12-[5-(piperidine-1-yl)pentyl]-6,7-dihydro-12H-benzothiepino [5,4-b]indole], the “% Efficacy” value in assay [1] (setting [7]) was “Inactive”. The activity at 100 µM in assay [5] worked out at 99%. In assay [4] (read-out: LC50, Test-4), the CC50 worked out at 40 µM. Moreover, the RBA in assay [6] was below 0.001.

As to `Oc1ccc2c(c1)SCCc1c-2n(CCCCCN2CCCC2)c2ccc(O)cc12` [Example number 36, 3,9-Dihydroxy-12-[5-(pyrrolidine-1-yl)pentyl]-6,7-dihydro-12H-benzothiepino [5,4-b]indole], the activity at 100 µM in assay [5] worked out at 118%. Besides, in assay [4] (read-out: LC50, Test-4), the CC50 was determined as 60 µM. In assay [6], the RBA is listed as below 0.001.

In the case of `c1ccc2c(c1)SCCc1c-2n(Cc2ccc(OCCN3CCCCC3)cc2)c2ccccc12` [Example number 39, 12-[4-(2-Piperidin-1-yl-ethoxy)benzyl]-6,7-dihydro-12H-benzothiepino [5,4-b]indole], in assay [1] (setting [7]), the “% Efficacy” value is recorded as “Inactive”. In addition, the change in vivo at 10 mg/kg in assay [2] (daily dose 10 mg/kg) is 83.3%. Also, the inhibition in vivo at 10 mg/kg/day in assay [3] is 3.7%. In addition, the activity at 100 µM in assay [5] came out at 85%.

Regarding `c1ccc2c(c1)OCCc1c-2n(CCCCCN2CCCCC2)c2ccccc12` [Example number 49, 12-[5-(Piperidine-1-yl)pentyl]-6,7-dihydro-12H-benzoxepino[5,4-b]indole], in assay [1] (Rattus norvegicus, 240 h, daily dose 10 mg/kg, days 1-7 post-coitum), the responders at 10 mg/kg was determined as 100%. For the same compound, the “% Efficacy” value in assay [1] (daily dose 5 mg/kg, days 1-5 post-coitum) was “Inactive”. Besides, the activity at 100 µM in assay [5] was determined as 63%.

On to `c1ccc2c(c1)OCCc1c-2n(CCCCCCN2CCCCC2)c2ccccc12` [Example number 51, 12-[6-(Piperidine-1-yl)hexyl]-6,7-dihydro-12H-benzoxepino[5,4-b]indole], for which the “% Efficacy” value in assay [1] (setting [7]) is given as “Inactive”. In assay [2], the change in vivo at 3 mg/kg was 21.9%. In assay [2] (daily dose 10 mg/kg), the change in vivo at 10 mg/kg worked out at 20%. In addition, the inhibition in vivo at 10 mg/kg/day in assay [3] amounted to 14%. Further, the CC50 in assay [4] (read-out: LC50, Test-1) was 22.3 µM; in assay [4] (read-out: LC50, Test-3), 12.8 µM. Also, the RBA in assay [6] amounted to 0.059.

These data come from patent US20050282863A1, “Novel-N substituted dihydrobenzothiepino, dihydrobenzoxepino and tetrahydro benzocyclohepta indoles as selective estrogen receptor modulators” (Council of Scientific & Industrial Research, priority 2004, published 2005).
